From US9706790B2, “Compounds, compositions, and methods for reducing or eliminating bitter taste” (CHROMOCELL CORPORATION, priority 2011, dated 2017)

Tested on: bitter taste of KCl
Experiment: KCl Latin Square-2AFC taste test, macaroni and cheese (chew and spit)
Assay type: in vivo, humans
Details: KCl 5.7% in cheese powder (0.34% in final prepared food product); for # of panelists discerning decrease in bitter taste/# of panelists tested: versus KCl standard
Protocol: The taste test panelists used in the following examples were screened based upon and selected for their ability to perceive the bitter taste associated with potassium chloride. Only panelists capable of perceiving bitter taste participated in the following taste tests.
The effect of the test compounds on the perception of the bitter taste of KCl in prepared food products in humans was evaluated using a “chew and spit” test using a Latin Square-2AFC testing method as follows.
Edible KCl food products (“KCl test food product”) were prepared according to the following instructions. 6 cups water were boiled in stainless steel pot to a ‘rolling’ boil. Once a rolling boil was achieved, 166.5 grams of pasta were added to the boiling water. The pasta was stirred briefly to prevent the pasta from sticking to the pot. The pasta was boiled for 8.5 minutes and drained in a stainless steel colander. The pasta was shaken (approximately 15 times back and forth and twice up and down) to remove excess water. The drained pasta was returned to the stainless steel pot, and 56 grams (4 tablespoons) Land O'Lakes™ unsalted butter was added to the hot pasta. When the unsalted butter was half melted, 39.5 grams cheese powder (containing the KCl) was added in the center of the pasta. Separately, test compound was diluted in 1 ml of propylene glycol (PG; alternatively the test compound may also be diluted in a milk stock solution or a butter oil stock solution) and the resulting solution added to 99 ml of milk. 63 ml of the PG/milk solution was poured around cheese powder and gently folded into the pasta with a stainless steel spoon in order to avoid cheese clumping on spoon. KCl standards were similarly prepared by adding milk without any test compound.
The panelists tasted portions by chewing and spitting. In order to eliminate any effects of sample order, a complete Latin Square design was employed so that each possible order of sample presentation was utilized across subjects. Each sample was tested in several discrete taste test experiments. […]

SMILES: C/C(=C\CO)CCCC(C)CCCC(C)CCCC(C)C (stereo not drawn) [Compound 5]
- Conc. at Which At Least 50% of Panelists Discerned Decrease in Bitter Taste: 10 ppm
- # of panelists discerning decrease in bitter taste/# of panelists tested (compound at 10 ppm): 10 (28/50)
- # of panelists discerning decrease in bitter taste/# of panelists tested (compound at 20 ppm): 20 (20/49)
